According to the supplement of paper PMC11208160:
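Note: IS621 bridge recombinase in Escherichia coli cells against a fixed T5 target plasmid.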

Test: recombinant UMI read abundance after kanamycin selection (control-corrected) (log10(CPM+1)); higher = more efficient recombination; extreme values may be limits of the assay; sequences stand for … in AGTGCAGAGAAAATCGGCCAGTTTTCTCTGCCTGCAGTCCGCATGCCGTGGGACCCCTTGGGTTCTAACCTGTTGCCTAGATTTATGCAGCGGACTGCCTTTCTCCCAAAGTGATAAACCGG…AGGTTGGTTTCACT; site = the 11-nt donor
Description: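 Pooled E. coli donor-specificity screen for the IS621 bridge recombinase. Each library member carries a reprogrammed 11-nt donor and a full-length LE bridge RNA expressed in cis from the natural promoter, with a paired donor-binding loop (8-nt LDG + 4-nt RDG) and a target-binding loop fixed to T5. It is co-electroporated with a T5 target plasmid; recombinase is induced with 0.07 mM IPTG and recombinants are selected on kanamycin. UMIs are counted as CPM, averaged over two biological replicates and corrected by the unselected control. Molecule = full bridge RNA written as DNA, built from the T5 scaffold: LDG = donor specificity nt 1-8, RDG = reverse complement of nt 8-11.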
In the case of “AAATGTTCATGGACCGGTTTTCCCGGTAATCCGTATTTGCC (site AAATGTTCTGG)”, the “recombinant UMI read abundance (log10)” value was 2.2. With “AAATTCCCATGGACCGGTTTTCCCGGTAATCCGTATTTGCT (site AAATTCCCTAG)” the “recombinant UMI read abundance (log10)” value was 1.37. For “AAATTCCCATGGACCGGTTTTCCCGGTAATCCGTATTTGCT (site CAATTCCCTAG)”, the “recombinant UMI read abundance (log10)” value was 0.647. In the case of “AAATTCCCATGGACCGGTTTTCCCGGTAATCCGTATTTGCT (site GAATTCCCTAG)”, the “recombinant UMI read abundance (log10)” value was 0.544. For “AAATTCCCATGGACCGGTTTTCCCGGTAATCCGTATTTGCT (site TAATTCCCTAG)”, the “recombinant UMI read abundance (log10)” value was 1.08. In the case of “AAATTCCCATGGACCGGTTTTCCCGGTAATCCGTATTTGGT (site AAATTCCCTAC)”, the “recombinant UMI read abundance (log10)” value was 0. For “AACACACCATGGACCGGTTTTCCCGGTAATCCGTATTTGAC (site AACACACCTGT)”, the “recombinant UMI read abundance (log10)” value was 0. In the case of “AACACCTCATGGACCGGTTTTCCCGGTAATCCGTATTTGAT (site AACACCTCTAT)”, the “recombinant UMI read abundance (log10)” value was 1.76. For “AACAGAGCATGGACCGGTTTTCCCGGTAATCCGTATTTGAT (site AACAGAGCTAT)”, the “recombinant UMI read abundance (log10)” value was 2.02. With “AACCAAACATGGACCGGTTTTCCCGGTAATCCGTATTTGTC (site AACCAAACTGA)” the “recombinant UMI read abundance (log10)” value was 0. For “AACCCACCATGGACCGGTTTTCCCGGTAATCCGTATTTGGA (site AACCCACCTTC)”, the “recombinant UMI read abundance (log10)” value was 0.0204. With “AACCGCCCATGGACCGGTTTTCCCGGTAATCCGTATTTGAT (site AACCGACCTAT)” the “recombinant UMI read abundance (log10)” value was 0.0035. For “AACCGCCCATGGACCGGTTTTCCCGGTAATCCGTATTTGAT (site AACCGCCCTAT)”, the “recombinant UMI read abundance (log10)” value was 0.00906. With “AACCGCCCATGGACCGGTTTTCCCGGTAATCCGTATTTGAT (site AACCGGCCTAT)” the “recombinant UMI read abundance (log10)” value was 0.00971. In the case of “AACCGCCCATGGACCGGTTTTCCCGGTAATCCGTATTTGAT (site AACCGTCCTAT)”, the “recombinant UMI read abundance (log10)” value was 0.0447. For “AACCGGCCATGGACCGGTTTTCCCGGTAATCCGTATTTGAT (site AACCGACCTAT)”, the “recombinant UMI read abundance (log10)” value was 0. In the case of “AACCGGCCATGGACCGGTTTTCCCGGTAATCCGTATTTGAT (site AACCGCCCTAT)”, the “recombinant UMI read abundance (log10)” value was 0.014. In the case of “AACCGGCCATGGACCGGTTTTCCCGGTAATCCGTATTTGAT (site AACCGGCCTAT)”, the “recombinant UMI read abundance (log10)” value was 0.016. For “AACCGGCCATGGACCGGTTTTCCCGGTAATCCGTATTTGAT (site AACCGTCCTAT)”, the “recombinant UMI read abundance (log10)” value was 0.0213. With “AACCGGTCATGGACCGGTTTTCCCGGTAATCCGTATTTGGA (site AACCGGTCTTC)” the “recombinant UMI read abundance (log10)” value was 0.422. For “AACCGTCCATGGACCGGTTTTCCCGGTAATCCGTATTTGAA (site AACCGTCCTAT)”, the “recombinant UMI read abundance (log10)” value was 0.0196. With “AACCGTCCATGGACCGGTTTTCCCGGTAATCCGTATTTGAA (site AACCGTCCTCT)” the “recombinant UMI read abundance (log10)” value was 0.0191. In the case of “AACCGTCCATGGACCGGTTTTCCCGGTAATCCGTATTTGAA (site AACCGTCCTGT)”, the “recombinant UMI read abundance (log10)” value was 0. For “AACCGTCCATGGACCGGTTTTCCCGGTAATCCGTATTTGAA (site AACCGTCCTTT)”, the “recombinant UMI read abundance (log10)” value was 0.0144. For “AACCGTCCATGGACCGGTTTTCCCGGTAATCCGTATTTGCT (site AACCGTCCTAA)”, the “recombinant UMI read abundance (log10)” value was 0.0135. With “AACCGTCCATGGACCGGTTTTCCCGGTAATCCGTATTTGCT (site AACCGTCCTAC)” the “recombinant UMI read abundance (log10)” value was 0.00247. For “AACCGTCCATGGACCGGTTTTCCCGGTAATCCGTATTTGCT (site AACCGTCCTAG)”, the “recombinant UMI read abundance (log10)” value was 0.593. In the case of “AACCGTCCATGGACCGGTTTTCCCGGTAATCCGTATTTGCT (site AACCGTCCTAT)”, the “recombinant UMI read abundance (log10)” value was 0.0146. In the case of “AACCGTCCATGGACCGGTTTTCCCGGTAATCCGTATTTGGT (site AACCGTCCTAA)”, the “recombinant UMI read abundance (log10)” value was 0.0129. For “AACCGTCCATGGACCGGTTTTCCCGGTAATCCGTATTTGGT (site AACCGTCCTAC)”, the “recombinant UMI read abundance (log10)” value was 0.0164. With “AACCGTCCATGGACCGGTTTTCCCGGTAATCCGTATTTGGT (site AACCGTCCTAG)” the “recombinant UMI read abundance (log10)” value was 0.00368. For “AACCGTCCATGGACCGGTTTTCCCGGTAATCCGTATTTGGT (site AACCGTCCTAT)”, the “recombinant UMI read abundance (log10)” value was 0.00572. With “AACCTTCCATGGACCGGTTTTCCCGGTAATCCGTATTTGAA (site AACCTTCCTTT)” the “recombinant UMI read abundance (log10)” value was 0.0147. For “AACGACGCATGGACCGGTTTTCCCGGTAATCCGTATTTGTA (site AACGACGCTTA)”, the “recombinant UMI read abundance (log10)” value was 1.99. With “AACGAGCCATGGACCGGTTTTCCCGGTAATCCGTATTTGAA (site AACGAGCCTTT)” the “recombinant UMI read abundance (log10)” value was 0.157. With “AACGCAACATGGACCGGTTTTCCCGGTAATCCGTATTTGTT (site AACGCAACTAA)” the “recombinant UMI read abundance (log10)” value was 0.495. With “AACGCTGCATGGACCGGTTTTCCCGGTAATCCGTATTTGAA (site AACGCTGCTTT)” the “recombinant UMI read abundance (log10)” value was 1.06. With “AACGGAACATGGACCGGTTTTCCCGGTAATCCGTATTTGAT (site AACGGAACTAT)” the “recombinant UMI read abundance (log10)” value was 2.33. In the case of “AACGGTCCATGGACCGGTTTTCCCGGTAATCCGTATTTGGC (site AACGGTCCTGC)”, the “recombinant UMI read abundance (log10)” value was 0. In the case of “AACGTTTCATGGACCGGTTTTCCCGGTAATCCGTATTTGCT (site AACGTTTCTAG)”, the “recombinant UMI read abundance (log10)” value was 2.48. With “AACTAGCCATGGACCGGTTTTCCCGGTAATCCGTATTTGCG (site AACTAGCCTCG)” the “recombinant UMI read abundance (log10)” value was 0.00356. For “AACTATACATGGACCGGTTTTCCCGGTAATCCGTATTTGAC (site AACTATACTGT)”, the “recombinant UMI read abundance (log10)” value was 2.31. In the case of “AACTATACATGGACCGGTTTTCCCGGTAATCCGTATTTGAC (site ACCTATACTGT)”, the “recombinant UMI read abundance (log10)” value was 0.367. For “AACTATACATGGACCGGTTTTCCCGGTAATCCGTATTTGAC (site AGCTATACTGT)”, the “recombinant UMI read abundance (log10)” value was 0.797. For “AACTATACATGGACCGGTTTTCCCGGTAATCCGTATTTGAC (site ATCTATACTGT)”, the “recombinant UMI read abundance (log10)” value was 1.94. In the case of “AACTATGCATGGACCGGTTTTCCCGGTAATCCGTATTTGGA (site AAATATGCTTC)”, the “recombinant UMI read abundance (log10)” value was 0.502. For “AACTATGCATGGACCGGTTTTCCCGGTAATCCGTATTTGGA (site AACTATGCTTC)”, the “recombinant UMI read abundance (log10)” value was 1.22. For “AACTATGCATGGACCGGTTTTCCCGGTAATCCGTATTTGGA (site AAGTATGCTTC)”, the “recombinant UMI read abundance (log10)” value was 0.552. In the case of “AACTATGCATGGACCGGTTTTCCCGGTAATCCGTATTTGGA (site AATTATGCTTC)”, the “recombinant UMI read abundance (log10)” value was 0.908. For “AACTATTCATGGACCGGTTTTCCCGGTAATCCGTATTTGCG (site AACTATTCTCG)”, the “recombinant UMI read abundance (log10)” value was 2.02. With “AACTGGACATGGACCGGTTTTCCCGGTAATCCGTATTTGGG (site AACTGGACTCC)” the “recombinant UMI read abundance (log10)” value was 0.0254. For “AACTTGACATGGACCGGTTTTCCCGGTAATCCGTATTTGAC (site AACTTGACTGT)”, the “recombinant UMI read abundance (log10)” value was 0. With “AACTTGTCATGGACCGGTTTTCCCGGTAATCCGTATTTGGC (site AACTTGTCTGC)” the “recombinant UMI read abundance (log10)” value was 0. In the case of “AAGAACACATGGACCGGTTTTCCCGGTAATCCGTATTTGCA (site AAGAACACTTG)”, the “recombinant UMI read abundance (log10)” value was 2.85. For “AAGAACACATGGACCGGTTTTCCCGGTAATCCGTATTTGCA (site AGGAAGACTTG)”, the “recombinant UMI read abundance (log10)” value was 0. In the case of “AAGAAGACATGGACCGGTTTTCCCGGTAATCCGTATTTGAA (site AAGAAGACTTT)”, the “recombinant UMI read abundance (log10)” value was 2.39. In the case of “AAGAAGACATGGACCGGTTTTCCCGGTAATCCGTATTTGAA (site AGGAAGACTTG)”, the “recombinant UMI read abundance (log10)” value was 0. For “AAGAAGTCATGGACCGGTTTTCCCGGTAATCCGTATTTGTA (site AAGAAGTCTTA)”, the “recombinant UMI read abundance (log10)” value was 3.3. In the case of “AAGAGGACATGGACCGGTTTTCCCGGTAATCCGTATTTGCA (site AAGAGGACTTG)”, the “recombinant UMI read abundance (log10)” value was 2.65. For “AAGAGGACATGGACCGGTTTTCCCGGTAATCCGTATTTGCA (site AGGAAGACTTG)”, the “recombinant UMI read abundance (log10)” value was 1.62. With “AAGCAAGCATGGACCGGTTTTCCCGGTAATCCGTATTTGGG (site AAGCAAGCTCC)” the “recombinant UMI read abundance (log10)” value was 0.623. With “AAGCAAGCATGGACCGGTTTTCCCGGTAATCCGTATTTGGG (site AAGCACGCTCC)” the “recombinant UMI read abundance (log10)” value was 0.0526. For “AAGCAAGCATGGACCGGTTTTCCCGGTAATCCGTATTTGGG (site AAGCAGGCTCC)”, the “recombinant UMI read abundance (log10)” value was 0. In the case of “AAGCAAGCATGGACCGGTTTTCCCGGTAATCCGTATTTGGG (site AAGCATGCTCC)”, the “recombinant UMI read abundance (log10)” value was 0.0463. For “AAGCACACATGGACCGGTTTTCCCGGTAATCCGTATTTGGG (site AAGCACACTCC)”, the “recombinant UMI read abundance (log10)” value was 0.242. In the case of “AAGCACACATGGACCGGTTTTCCCGGTAATCCGTATTTGGG (site AAGCACCCTCC)”, the “recombinant UMI read abundance (log10)” value was 0.0138. For “AAGCACACATGGACCGGTTTTCCCGGTAATCCGTATTTGGG (site AAGCACGCTCC)”, the “recombinant UMI read abundance (log10)” value was 0.0056. For “AAGCACACATGGACCGGTTTTCCCGGTAATCCGTATTTGGG (site AAGCACTCTCC)”, the “recombinant UMI read abundance (log10)” value was 0.222. For “AAGCACTCATGGACCGGTTTTCCCGGTAATCCGTATTTGGG (site AAGCACACTCC)”, the “recombinant UMI read abundance (log10)” value was 0.0075. For “AAGCACTCATGGACCGGTTTTCCCGGTAATCCGTATTTGGG (site AAGCACCCTCC)”, the “recombinant UMI read abundance (log10)” value was 0.00615. In the case of “AAGCACTCATGGACCGGTTTTCCCGGTAATCCGTATTTGGG (site AAGCACGCTCC)”, the “recombinant UMI read abundance (log10)” value was 0.0931. For “AAGCACTCATGGACCGGTTTTCCCGGTAATCCGTATTTGGG (site AAGCACTCTCC)”, the “recombinant UMI read abundance (log10)” value was 1.57.
